Results taken from patent US20230135093A1, “TRIAZOLYL DERIVATIVES AS GABA A ALPHA5 PAM” (Hoffmann-La Roche Inc., priority 2020, published 2023).
pKi: −log10 of the molar value.

Columns and labels:
[1] = target: T1, h-GABA-A α5β3γ2 (Homo sapiens, UniProt P18507+P31644); experiment: [3H]flumazenil competition binding assay on membranes of HEK293 cells expressing GABAA receptors; conditions: Table 1; displacement of [3H]-Flumazenil (0.5 nM), HEK293 cells expressing human receptors, means of two determinations
T1 construct: expressed in transfected cells; host or cells: Xenopus laevis oocytes, micro-injected with subunit RNA
Protocol: The affinity of compounds at GABAA receptor subtypes was measured by competition for [3H]flumazenil (85 Ci/mmol; Roche) binding to HEK293 cells expressing rat (stably transfected) or human (transiently transfected) receptors of composition α1β3γ2, α2β3γ2, α3β3γ2 and α5β3γ2.
Cell pellets were suspended in Krebs-tris buffer (4.8 mM KCl, 1.2 mM CaCl2, 1.2 mM MgCl2, 120 mM NaCl, 15 mM Tris; pH 7.5; binding assay buffer), homogenized by polytron for ca. 20 sec on ice and centrifuged for 60 min at 4° C. (50000 g; Sorvall, rotor: SM24=20000 rpm). The cell pellets were resuspended in Krebs-tris buffer and homogenized by polytron for ca. 15 sec on ice. Protein was measured (Bradford method, Bio-Rad) and aliquots of 1 mL were prepared and stored at −80° C.
Radioligand binding assays were carried out in a volume of […] (96-well plates) which contained […] of cell membranes, [^3H]-Flumazenil at a concentration of 1 nM for α1, α2, α3 subunits and 0.5 nM for α5 subunits and the test compound in the range of […]. Nonspecific binding was defined by 10^−5 M diazepam and typically represented less than 5% of the total binding. Assays were incubated to equilibrium for 1 hour at 4° C. and harvested onto GF/C uni-filters (Packard) by filtration using a Packard harvester and washing with ice-cold wash buffer (50 mM Tris; pH 7.5). After drying, filter-retained radioactivity was detected by liquid scintillation counting. Ki values were calculated using Excel-Fit (Microsoft) and are the means of two determinations.
In a preferred embodiment the compounds of the invention are binding selective for the α5 subunit relative to the α1, α2 and α3 subunit. Representative test results, obtained by the above described assay measuring binding affinity to HEK293 cells expressing human (h) receptors, are shown in the Table below.

[2] = target: T1, h-GABA-A α5β3γ2; experiment: Two-electrode voltage clamp electrophysiology in Xenopus oocytes expressing GABAA receptors (modulation of GABA EC20 current); format: cell-based; conditions: Table 1; for Efficacy (GABA) %: % modulation of GABA EC20 = 100*(Fold increase-1); for Fold increase h-GABA-A α5β3γ2 oocyte: Xenopus oocytes, GABA EC20, test compound at approximatively 30 fold its Ki
Protocol: Xenopus laevis oocytes at maturation stages V-VI were used for the expression of cloned mRNA encoding GABAA receptor subunits. Oocytes ready for RNA micro-injection were bought from Ecocyte, Castrop-Rauxel, Germany and stored in modified Barth's medium (composition in mM: NaCl 88, KCl 1, NaHCO3 2.4, HEPES 10, MgSO4 0.82, CaNO3 0.33, CaCl2 0.33, pH=7.5) at 20° C. until the experiment.
Oocytes were plated in 96-well plates to be used in an automated instrument (Robo-ocyte, MultiChannelSystems, Reutlingen, Germany) for microinjection and electrophysiological recordings. Approximately 50 nl of an aqueous solution containing the RNA transcripts for the subunits of the desired GABAA receptor was injected into each oocyte. RNA concentrations ranged between 0.3 and 16 ng/μl/subunit and were adjusted in pilot experiments to obtain GABA responses of a suitable size and a maximal effect of the reference modulator, Beta-CCM (3-CCM), a betacarboline negative allosteric modulator (NAM) at the GABAA receptor benzodiazepine (BZD) binding site or Midazolam, a benzodiazepine positive allosteric modulator (PAM) at the GABAA receptor benzodiazepine (BZD) binding site. The concentration of the γ2 subunit encoding RNA usually was 5- to 10-fold higher than the RNAs encoding the other subunits. Oocytes were kept in modified Barth's medium (composition in mM: NaCl 88, KCl 1, NaHCO3 4, HEPES 10, MgSO4 0.82, CaNO3 0.33, CaCl2 0.33, pH=7.5) at 20° C. until the experiment.
Electrophysiological experiments were performed on days 3 to 5 after the micro-injection of mRNA. During the experiment the oocytes were constantly superfused by a solution containing (in mM) NaCl 90, KCl 1, HEPES 5, MgCl2 1, CaCl2 1 (pH 7.4). Oocytes were impaled by two glass microelectrodes (resistance: 0.4 MQ) which were filled with a solution containing KCl 1M+K-acetate 1.5 M and voltage-clamped to −80 mV. The recordings were performed at room temperature using the Roboocyte two-electrode voltage clamp system (Multichannelsystem). After an initial equilibration period of 1.5 min GABA was added for 1.5 min at a concentration evoking approximately 20% of a maximal current response (EC20). After another rest interval of 2.5 min GABA was again added evoking a response of similar amplitude and shape. 0.5 min after the onset of this second GABA application the test compound, at a concentration corresponding to approximatively 30 fold its Ki, was added while GABA was still present. Current traces were recorded at a digitization rate of 10 Hz during and shortly before and after the GABA application.
Each compound and concentration was tested on at least 3 oocytes. Different oocytes were used for different compound concentrations. β-CCM, a negative allosteric modulator, or Midazolam, a positive allosteric modulators, were tested on a few (3-6) oocytes on each 96-well plate for a positive control at a maximally effective. β-CCM inhibited the GABA-evoked current by approximatively 50% (Fold increase 0.5), while Midazolam potentiated the GABA-induced current by approximatively 150% (Fold increase 2.5).
For the analysis, the digitized current traces of the first and second GABA response were superimposed and, if necessary, rescaled to equal maximal amplitudes. The ratio between the two responses during the time interval of test compound application was calculated point by point. The extremum of the resulting “ratio trace” was taken as the efficacy (“Fold increase”) of the compound expressed as “% modulation of GABA EC20” (100*(Fold increase-1)).

SMILES	pKi [1]	Efficacy (GABA) % [2] [%]	Fold increase h-GABA-A α5β3γ2 oocyte [2]
Cc1ccc(-n2nnc(C)c2Cn2ncc(N3CCC[C@H]3C)cc2=O)cn1 [Example 25, 2-[[5-methyl-3-(6-methyl-3-pyridyl)triazol-4-yl]methyl]-5-[(2R)-2-methylpyrrolidin-1-yl]pyridazin-3-one]	8.36	97	1.97
COC1CN(c2cnn(Cc3c(-c4ccc(Cl)cc4F)nnn3C)c(=O)c2)C1 [Example 26, 2-[[5-(4-chloro-2-fluoro-phenyl)-3-methyl-triazol-4-yl]methyl]-5-(3-methoxyazetidin-1-yl)pyridazin-3-one]	7.89	55	1.55
CCOC1CN(c2cnn(Cc3c(-c4ccc(Cl)cc4F)nnn3C)c(=O)c2)C1 [Example 27, 2-[[5-(4-chloro-2-fluoro-phenyl)-3-methyl-triazol-4-yl]methyl]-5-(3-ethoxyazetidin-1-yl)pyridazin-3-one]	8.09	69	1.69
Cn1nnc(-c2ccc(Cl)cc2F)c1Cn1ncc(N2CC(OCC3CC3)C2)cc1=O [Example 28, 2-[[5-(4-chloro-2-fluoro-phenyl)-3-methyl-triazol-4-yl]methyl]-5-[3-(cyclopropyl-methoxy)azetidin-1-yl]pyridazin-3-one]	7.74	115	2.15
Cn1nnc(-c2ccc(Cl)cc2F)c1Cn1ncc(N2CC3(CCCO3)C2)cc1=O [Example 29, 2-[[5-(4-chloro-2-fluoro-phenyl)-3-methyl-triazol-4-yl]methyl]-5-(5-oxa-2-azaspiro[3.4]octan-2-yl)pyridazin-3-one]	7.82	49	1.49
C[C@@H]1CN(c2cnn(Cc3c(-c4ccc(Cl)cc4)nnn3C)c(=O)c2)C[C@H](C)O1 [Example 30, 2-[[5-(4-chlorophenyl)-3-methyl-triazol-4-yl]methyl]-5-[(2R,6S)-2,6-dimethylmorpholin-4-yl]pyridazin-3-one]	8.51	110	2.1
CN(C)c1cnn(Cc2c(-c3ccc(Cl)cc3)nnn2C)c(=O)c1 [Example 31, 2-[[5-(4-chlorophenyl)-3-methyl-triazol-4-yl]methyl]-5-(dimethylamino)pyridazin-3-one]	7.76	35	1.35
CO[C@@H]1COC2(C1)CN(c1cnn(Cc3c(-c4ccc(Cl)cc4F)nnn3C)c(=O)c1)C2 [Example 32, (S)-2-((4-(4-chloro-2-fluorophenyl)-1-methyl-1H-1,2,3-triazol-5-yl)methyl)-5-(7-methoxy-5-oxa-2-azaspiro[3.4]octan-2-yl)pyridazin-3(2H)-one]	7.33	98	1.98
CO[C@H]1COC2(C1)CN(c1cnn(Cc3c(-c4ccc(Cl)cc4F)nnn3C)c(=O)c1)C2 [Example 33, (R)-2-((4-(4-chloro-2-fluorophenyl)-1-methyl-1H-1,2,3-triazol-5-yl)methyl)-5-(7-methoxy-5-oxa-2-azaspiro[3.4]octan-2-yl)pyridazin-3(2H)-one]	7.78	61	1.61
Cc1nnn(-c2ccc(Cl)cc2F)c1Cn1ncc(N2CC(OCC(F)(F)F)C2)cc1=O [Example 34, 2-[[3-(4-chloro-2-fluoro-phenyl)-5-methyl-triazol-4-yl]methyl]-5-[3-(2,2,2-trifluoro-ethoxy)azetidin-1-yl]pyridazin-3-one]	7.35	85	1.85
Cc1nnn(-c2ccc(Cl)cc2F)c1Cn1ncc(N2CCO[C@@H](C)C2)cc1=O [Example 35, 2-[[3-(4-chloro-2-fluoro-phenyl)-5-methyl-triazol-4-yl]methyl]-5-[(2S)-2-methylmorpholin-4-yl]pyridazin-3-one]	7.98	130	2.3
Cc1nnn(-c2ccc(Cl)cc2F)c1Cn1ncc(N2CCO[C@H](C)C2)cc1=O [Example 36, 2-[[3-(4-chloro-2-fluoro-phenyl)-5-methyl-triazol-4-yl]methyl]-5-[(2R)-2-methylmorpholin-4-yl]pyridazin-3-one]	7.91	106	2.06
Cc1nnn(-c2ccc(Cl)cc2F)c1Cn1ncc(N2CCC(n3ccnc3C)CC2)cc1=O [Example 38, 2-[[3-(4-chloro-2-fluoro-phenyl)-5-methyl-triazol-4-yl]methyl]-5-[4-(2-methylimidazol-1-yl)-1-piperidyl]pyridazin-3-one]	8.25	78	1.78
COc1ncccc1N1CCN(c2cnn(Cc3c(C)nnn3-c3ccc(Cl)cc3F)c(=O)c2)CC1 [Example 39, 2-[[3-(4-chloro-2-fluoro-phenyl)-5-methyl-triazol-4-yl]methyl]-5-[4-(2-methoxy-3-pyridyl)piperazin-1-yl]pyridazin-3-one]	7.94	108	2.08
CC(C)N1CCN(c2cnn(Cc3c(-c4ccc(Cl)cc4)nnn3C)c(=O)c2)C[C@@H]1C [Example 40, 2-[[5-(4-chlorophenyl)-3-methyl-triazol-4-yl]methyl]-5-[(3S)-4-isopropyl-3-methyl-piperazin-1-yl]pyridazin-3-one]	7.69	103	2.03
